No end group written: not given here.
Test system: A. thaliana seedlings
Experiment: Seedling growth inhibition (fresh weight)
Format: in vivo, Arabidopsis thaliana
Conditions: mock mean = 1
Description: Four-day-old seedlings growing on MS plates were transferred individually into separate wells of transparent 48-well tissue culture plates (Greiner Bio-One) containing 500 μL of liquid MS media with/without elicitor addition. The plates were then transferred back to the growth conditions for an additional 10 days before seedlings were blot-dried and weighed.

RAGPSKSGQGGGR [SCOOP7]
Seedling fresh weight (Fig3C), relative to mock (Col-0, 1 μM, replicate 1): 0.0761 | Seedling fresh weight (Fig3C), relative to mock (Col-0, 1 μM, replicate 2): 0.03653 | Seedling fresh weight (Fig3C), relative to mock (Col-0, 1 μM, replicate 3): 0.1644 | Seedling fresh weight (Fig3C), relative to mock (Col-0, 1 μM, replicate 4): 0.1522 | Seedling fresh weight (Fig3C), relative to mock (Col-0, 1 μM, replicate 5): 0.1644 | Seedling fresh weight (Fig3C), relative to mock (Col-0, 1 μM, replicate 6): 0.01826 | Seedling fresh weight (Fig3C), relative to mock (Col-0, 1 μM, replicate 7): 0.0761 | Seedling fresh weight (Fig3C), relative to mock (Col-0, 1 μM, replicate 8): 0.07914 | Seedling fresh weight (Fig3C), relative to mock (Col-0, 1 μM, replicate 9): 0.09436 | Seedling fresh weight (Fig3C), relative to mock (Col-0, 1 μM, replicate 10): 0.08523 | Seedling fresh weight (Fig3C), relative to mock (Col-0, 1 μM, replicate 11): 0.1218 | Seedling fresh weight (Fig3C), relative to mock (Col-0, 1 μM, replicate 12): 0.1035 | Seedling fresh weight (Fig3C), relative to mock (Col-0, 10 μM, replicate 1): 0.009098 | Seedling fresh weight (Fig3C), relative to mock (Col-0, 10 μM, replicate 2): 0.006065 | Seedling fresh weight (Fig3C), relative to mock (Col-0, 10 μM, replicate 3): 0.003033 | Seedling fresh weight (Fig3C), relative to mock (Col-0, 10 μM, replicate 4): 0.009098 | Seedling fresh weight (Fig3C), relative to mock (Col-0, 10 μM, replicate 5): 0.01213 | Seedling fresh weight (Fig3C), relative to mock (Col-0, 10 μM, replicate 6): 0.009098 | Seedling fresh weight (Fig3C), relative to mock (Col-0, 10 μM, replicate 7): 0.01213 | Seedling fresh weight (Fig3C), relative to mock (Col-0, 10 μM, replicate 8): 0.009098 | Seedling fresh weight (Fig3C), relative to mock (Col-0, 10 μM, replicate 9): 0.01213 | Seedling fresh weight (Fig3C), relative to mock (Col-0, 10 μM, replicate 10): 0.009098 | Seedling fresh weight (Fig3C), relative to mock (Col-0, 10 μM, replicate 11): 0.01516 | Seedling fresh weight (Fig3C), relative to mock (Col-0, 10 μM, replicate 12): 0.006065 | Seedling fresh weight (Fig3C), relative to mock (mik2-1, 1 μM, replicate 1): 1.0796 | Seedling fresh weight (Fig3C), relative to mock (mik2-1, 1 μM, replicate 2): 1.12 | Seedling fresh weight (Fig3C), relative to mock (mik2-1, 1 μM, replicate 3): 1.033 | Seedling fresh weight (Fig3C), relative to mock (mik2-1, 1 μM, replicate 4): 0.9787 | Seedling fresh weight (Fig3C), relative to mock (mik2-1, 1 μM, replicate 5): 1.006 | Seedling fresh weight (Fig3C), relative to mock (mik2-1, 1 μM, replicate 6): 0.861 | Seedling fresh weight (Fig3C), relative to mock (mik2-1, 1 μM, replicate 7): 0.9955 | Seedling fresh weight (Fig3C), relative to mock (mik2-1, 1 μM, replicate 8): 0.9652 | Seedling fresh weight (Fig3C), relative to mock (mik2-1, 1 μM, replicate 9): 0.9047 | Seedling fresh weight (Fig3C), relative to mock (mik2-1, 1 μM, replicate 10): 1.0157 | Seedling fresh weight (Fig3C), relative to mock (mik2-1, 1 μM, replicate 11): 1.049 | Seedling fresh weight (Fig3C), relative to mock (mik2-1, 1 μM, replicate 12): 0.9518 | Seedling fresh weight (Fig3C), relative to mock (mik2-1, 10 μM, replicate 1): 1.014 | Seedling fresh weight (Fig3C), relative to mock (mik2-1, 10 μM, replicate 2): 0.9772 | Seedling fresh weight (Fig3C), relative to mock (mik2-1, 10 μM, replicate 3): 0.9332 | Seedling fresh weight (Fig3C), relative to mock (mik2-1, 10 μM, replicate 4): 0.9062 | Seedling fresh weight (Fig3C), relative to mock (mik2-1, 10 μM, replicate 5): 1.001 | Seedling fresh weight (Fig3C), relative to mock (mik2-1, 10 μM, replicate 6): 0.94 | Seedling fresh weight (Fig3C), relative to mock (mik2-1, 10 μM, replicate 7): 1.035 | Seedling fresh weight (Fig3C), relative to mock (mik2-1, 10 μM, replicate 8): 1.085 | Seedling fresh weight (Fig3C), relative to mock (mik2-1, 10 μM, replicate 9): 1.062 | Seedling fresh weight (Fig3C), relative to mock (mik2-1, 10 μM, replicate 10): 0.9197 | Seedling fresh weight (Fig3C), relative to mock (mik2-1, 10 μM, replicate 11): 0.9569 | Seedling fresh weight (Fig3C), relative to mock (mik2-1, 10 μM, replicate 12): 0.9028

ETPPSRSRRGGGG [SCOOP1]
Seedling fresh weight (Fig3C), relative to mock (Col-0, 1 μM, replicate 1): 0.767 | Seedling fresh weight (Fig3C), relative to mock (Col-0, 1 μM, replicate 2): 0.7214 | Seedling fresh weight (Fig3C), relative to mock (Col-0, 1 μM, replicate 3): 0.5418 | Seedling fresh weight (Fig3C), relative to mock (Col-0, 1 μM, replicate 4): 0.6909 | Seedling fresh weight (Fig3C), relative to mock (Col-0, 1 μM, replicate 5): 0.3379 | Seedling fresh weight (Fig3C), relative to mock (Col-0, 1 μM, replicate 6): 0.5266 | Seedling fresh weight (Fig3C), relative to mock (Col-0, 1 μM, replicate 7): 0.5662 | Seedling fresh weight (Fig3C), relative to mock (Col-0, 1 μM, replicate 8): 0.6453 | Seedling fresh weight (Fig3C), relative to mock (Col-0, 1 μM, replicate 9): 0.5753 | Seedling fresh weight (Fig3C), relative to mock (Col-0, 1 μM, replicate 10): 0.5996 | Seedling fresh weight (Fig3C), relative to mock (Col-0, 1 μM, replicate 11): 0.6118 | Seedling fresh weight (Fig3C), relative to mock (Col-0, 1 μM, replicate 12): 0.4961 | Seedling fresh weight (Fig3C), relative to mock (Col-0, 10 μM, replicate 1): 0.2426 | Seedling fresh weight (Fig3C), relative to mock (Col-0, 10 μM, replicate 2): 0.2002 | Seedling fresh weight (Fig3C), relative to mock (Col-0, 10 μM, replicate 3): 0.1668 | Seedling fresh weight (Fig3C), relative to mock (Col-0, 10 μM, replicate 4): 0.1698 | Seedling fresh weight (Fig3C), relative to mock (Col-0, 10 μM, replicate 5): 0.06065 | Seedling fresh weight (Fig3C), relative to mock (Col-0, 10 μM, replicate 6): 0.1729 | Seedling fresh weight (Fig3C), relative to mock (Col-0, 10 μM, replicate 7): 0.1759 | Seedling fresh weight (Fig3C), relative to mock (Col-0, 10 μM, replicate 8): 0.2305 | Seedling fresh weight (Fig3C), relative to mock (Col-0, 10 μM, replicate 9): 0.2092 | Seedling fresh weight (Fig3C), relative to mock (Col-0, 10 μM, replicate 10): 0.1607 | Seedling fresh weight (Fig3C), relative to mock (Col-0, 10 μM, replicate 11): 0.2244 | Seedling fresh weight (Fig3C), relative to mock (Col-0, 10 μM, replicate 12): 0.2032 | Seedling fresh weight (Fig3C), relative to mock (mik2-1, 1 μM, replicate 1): 1.15 | Seedling fresh weight (Fig3C), relative to mock (mik2-1, 1 μM, replicate 2): 1.076 | Seedling fresh weight (Fig3C), relative to mock (mik2-1, 1 μM, replicate 3): 1.026 | Seedling fresh weight (Fig3C), relative to mock (mik2-1, 1 μM, replicate 4): 1.019 | Seedling fresh weight (Fig3C), relative to mock (mik2-1, 1 μM, replicate 5): 1.076 | Seedling fresh weight (Fig3C), relative to mock (mik2-1, 1 μM, replicate 6): 0.9888 | Seedling fresh weight (Fig3C), relative to mock (mik2-1, 1 μM, replicate 7): 1.049 | Seedling fresh weight (Fig3C), relative to mock (mik2-1, 1 μM, replicate 8): 1.026 | Seedling fresh weight (Fig3C), relative to mock (mik2-1, 1 μM, replicate 9): 0.9619 | Seedling fresh weight (Fig3C), relative to mock (mik2-1, 1 μM, replicate 10): 0.9215 | Seedling fresh weight (Fig3C), relative to mock (mik2-1, 1 μM, replicate 11): 0.9619 | Seedling fresh weight (Fig3C), relative to mock (mik2-1, 1 μM, replicate 12): 0.9922 | Seedling fresh weight (Fig3C), relative to mock (mik2-1, 10 μM, replicate 1): 1.089 | Seedling fresh weight (Fig3C), relative to mock (mik2-1, 10 μM, replicate 2): 0.9298 | Seedling fresh weight (Fig3C), relative to mock (mik2-1, 10 μM, replicate 3): 0.9231 | Seedling fresh weight (Fig3C), relative to mock (mik2-1, 10 μM, replicate 4): 0.9738 | Seedling fresh weight (Fig3C), relative to mock (mik2-1, 10 μM, replicate 5): 0.9332 | Seedling fresh weight (Fig3C), relative to mock (mik2-1, 10 μM, replicate 6): 0.9028 | Seedling fresh weight (Fig3C), relative to mock (mik2-1, 10 μM, replicate 7): 1.008 | Seedling fresh weight (Fig3C), relative to mock (mik2-1, 10 μM, replicate 8): 0.9704 | Seedling fresh weight (Fig3C), relative to mock (mik2-1, 10 μM, replicate 9): 1.085 | Seedling fresh weight (Fig3C), relative to mock (mik2-1, 10 μM, replicate 10): 1.031 | Seedling fresh weight (Fig3C), relative to mock (mik2-1, 10 μM, replicate 11): 0.9569 | Seedling fresh weight (Fig3C), relative to mock (mik2-1, 10 μM, replicate 12): 0.967
